Assay results published in a compilation of properties of binary mixtures (doi:10.1007/s10953-010-9562-5).

Assay: xn = mol fraction of the nth substance listed
Conditions: 101 kPa

CC1COC(=O)O1 (configuration not stated) + CCCC[N+]1(C)CCCC1.O=S(=O)([N-]S(=O)(=O)C(F)(F)F)C(F)(F)F
x1 = 1
Conditions	electrical conductivity [S/m]	viscosity [mPa·s]
263.15 K	0.001	–
268.15 K	0.001	–
273.15 K	0.001	–
278.15 K	0.001	–
283.15 K	0.001	–
288.15 K	0.001	–
298.15 K	0.002	2.52
308.15 K	0.002	2.14
318.15 K	–	1.85

CCCC[N+]1(C)CCCC1.O=S(=O)([N-]S(=O)(=O)C(F)(F)F)C(F)(F)F + CC1COC(=O)O1
Conditions	electrical conductivity [S/m]	viscosity [mPa·s]
253.15 K, x2 = 0	0.017	–
253.15 K, x2 = 0.05	0.021	–
253.15 K, x2 = 0.16	0.032	–
253.15 K, x2 = 0.26	0.049	–
253.15 K, x2 = 0.32	0.06	–
253.15 K, x2 = 0.37	0.074	–
253.15 K, x2 = 0.42	0.09	–
253.15 K, x2 = 0.53	0.13	–
253.15 K, x2 = 0.58	0.155	–
253.15 K, x2 = 0.68	0.213	–
253.15 K, x2 = 0.74	0.243	–
253.15 K, x2 = 0.84	0.287	–
253.15 K, x2 = 0.95	0.232	–
253.15 K, x2 = 0.97	0.165	–
258.15 K, x2 = 0	0.031	–
258.15 K, x2 = 0.05	0.037	–
258.15 K, x2 = 0.11	0.043	–
258.15 K, x2 = 0.21	0.061	–
258.15 K, x2 = 0.32	0.086	–
258.15 K, x2 = 0.37	0.102	–
258.15 K, x2 = 0.42	0.121	–
258.15 K, x2 = 0.47	0.144	–
258.15 K, x2 = 0.53	0.169	–
258.15 K, x2 = 0.63	0.231	–
258.15 K, x2 = 0.68	0.266	–
258.15 K, x2 = 0.74	0.302	–
258.15 K, x2 = 0.79	0.333	–
258.15 K, x2 = 0.84	0.353	–
258.15 K, x2 = 0.89	0.344	–
258.15 K, x2 = 0.95	0.274	–
258.15 K, x2 = 0.97	0.182	–
263.15 K, x2 = 0	0.045	–
263.15 K, x2 = 0.11	0.062	–
263.15 K, x2 = 0.16	0.073	–
263.15 K, x2 = 0.21	0.086	–
263.15 K, x2 = 0.26	0.102	–
263.15 K, x2 = 0.32	0.12	–
263.15 K, x2 = 0.42	0.165	–
263.15 K, x2 = 0.47	0.193	–
263.15 K, x2 = 0.58	0.261	–
263.15 K, x2 = 0.63	0.3	–
263.15 K, x2 = 0.68	0.341	–
263.15 K, x2 = 0.74	0.381	–
263.15 K, x2 = 0.79	0.415	–
263.15 K, x2 = 0.84	0.432	–
263.15 K, x2 = 0.95	0.323	–
263.15 K, x2 = 0.97	0.232	–
268.15 K, x2 = 0	0.072	–
268.15 K, x2 = 0.05	0.082	–
268.15 K, x2 = 0.11	0.094	–
268.15 K, x2 = 0.16	0.108	–
268.15 K, x2 = 0.21	0.124	–
268.15 K, x2 = 0.26	0.143	–
268.15 K, x2 = 0.32	0.165	–
268.15 K, x2 = 0.37	0.19	–
268.15 K, x2 = 0.42	0.218	–
268.15 K, x2 = 0.47	0.251	–
268.15 K, x2 = 0.53	0.288	–
268.15 K, x2 = 0.58	0.328	–
268.15 K, x2 = 0.63	0.372	–
268.15 K, x2 = 0.74	0.461	–
268.15 K, x2 = 0.79	0.496	–
268.15 K, x2 = 0.84	0.512	–
268.15 K, x2 = 0.89	0.487	–
268.15 K, x2 = 0.95	0.377	–
268.15 K, x2 = 0.97	0.296	–
273.15 K, x2 = 0.05	0.122	–
273.15 K, x2 = 0.11	0.137	–
273.15 K, x2 = 0.16	0.154	–
273.15 K, x2 = 0.21	0.173	–
273.15 K, x2 = 0.32	0.22	–
273.15 K, x2 = 0.37	0.249	–
273.15 K, x2 = 0.47	0.316	–
273.15 K, x2 = 0.53	0.356	–
273.15 K, x2 = 0.58	0.399	–
273.15 K, x2 = 0.63	0.444	–
273.15 K, x2 = 0.68	0.491	–
273.15 K, x2 = 0.79	0.57	–
273.15 K, x2 = 0.84	0.585	–
273.15 K, x2 = 0.89	0.559	–
273.15 K, x2 = 0.95	0.445	–
273.15 K, x2 = 0.97	0.375	–
278.15 K, x2 = 0	0.152	–
278.15 K, x2 = 0.05	0.168	–
278.15 K, x2 = 0.11	0.185	–
278.15 K, x2 = 0.16	0.205	–
278.15 K, x2 = 0.21	0.228	–
278.15 K, x2 = 0.32	0.281	–
278.15 K, x2 = 0.37	0.312	–
278.15 K, x2 = 0.42	0.347	–
278.15 K, x2 = 0.47	0.385	–
278.15 K, x2 = 0.53	0.426	–
278.15 K, x2 = 0.58	0.47	–
278.15 K, x2 = 0.63	0.516	–
278.15 K, x2 = 0.68	0.562	–
278.15 K, x2 = 0.74	0.604	–
278.15 K, x2 = 0.79	0.637	–
278.15 K, x2 = 0.84	0.649	–
278.15 K, x2 = 0.89	0.621	–
278.15 K, x2 = 0.97	0.414	–
283.15 K, x2 = 0	0.193	–
283.15 K, x2 = 0.11	0.234	–
283.15 K, x2 = 0.21	0.284	–
283.15 K, x2 = 0.26	0.313	–
283.15 K, x2 = 0.32	0.346	–
283.15 K, x2 = 0.42	0.421	–
283.15 K, x2 = 0.47	0.464	–
283.15 K, x2 = 0.53	0.51	–
283.15 K, x2 = 0.63	0.606	–
283.15 K, x2 = 0.74	0.697	–
283.15 K, x2 = 0.79	0.728	–
283.15 K, x2 = 0.84	0.735	–
288.15 K, x2 = 0	0.249	–
288.15 K, x2 = 0.05	0.271	–
288.15 K, x2 = 0.11	0.295	–
288.15 K, x2 = 0.16	0.322	–
288.15 K, x2 = 0.21	0.351	–
288.15 K, x2 = 0.32	0.42	–
288.15 K, x2 = 0.37	0.459	–
288.15 K, x2 = 0.42	0.501	–
288.15 K, x2 = 0.53	0.595	–
288.15 K, x2 = 0.58	0.645	–
288.15 K, x2 = 0.63	0.696	–
288.15 K, x2 = 0.68	0.745	–
288.15 K, x2 = 0.84	0.821	–
288.15 K, x2 = 0.89	0.776	–
288.15 K, x2 = 0.95	0.63	–
288.15 K, x2 = 0.97	0.528	–
293.15 K, x2 = 0.05	0.328	70.58
293.15 K, x2 = 0.11	0.357	59.09
293.15 K, x2 = 0.16	0.388	50.53
293.15 K, x2 = 0.21	0.421	44.05
293.15 K, x2 = 0.26	0.458	38.97
293.15 K, x2 = 0.32	0.498	34.77
293.15 K, x2 = 0.37	0.542	31.1
293.15 K, x2 = 0.42	0.588	27.69
293.15 K, x2 = 0.47	0.638	24.42
293.15 K, x2 = 0.58	0.742	18.11
293.15 K, x2 = 0.63	0.794	15.13
293.15 K, x2 = 0.68	0.843	12.36
293.15 K, x2 = 0.74	0.884	9.88
293.15 K, x2 = 0.84	0.908	6.05
293.15 K, x2 = 0.89	0.853	4.71
293.15 K, x2 = 0.95	0.692	3.65
293.15 K, x2 = 0.97	0.582	–
298.15 K, x2 = 0	0.364	68.16
298.15 K, x2 = 0.05	0.394	56.05
298.15 K, x2 = 0.11	0.425	47.09
298.15 K, x2 = 0.16	0.46	40.44
298.15 K, x2 = 0.21	0.497	35.42
298.15 K, x2 = 0.26	0.538	31.51
298.15 K, x2 = 0.47	0.73	20.25
298.15 K, x2 = 0.53	0.784	17.72
298.15 K, x2 = 0.58	0.839	15.23
298.15 K, x2 = 0.68	0.942	10.56
298.15 K, x2 = 0.74	0.982	8.51
298.15 K, x2 = 0.79	1	6.74
298.15 K, x2 = 0.84	0.997	5.29
298.15 K, x2 = 0.89	0.934	4.14
298.15 K, x2 = 0.95	0.757	3.26
298.15 K, x2 = 0.97	0.628	–
303.15 K, x2 = 0	0.426	54.05
303.15 K, x2 = 0.05	0.458	44.95
303.15 K, x2 = 0.11	0.494	38.15
303.15 K, x2 = 0.16	0.532	33.05
303.15 K, x2 = 0.26	0.618	26.04
303.15 K, x2 = 0.32	0.666	23.45
303.15 K, x2 = 0.37	0.717	21.15
303.15 K, x2 = 0.47	0.828	16.91
303.15 K, x2 = 0.53	0.886	14.85
303.15 K, x2 = 0.58	0.944	12.83
303.15 K, x2 = 0.68	1.05	9.03
303.15 K, x2 = 0.79	1.11	5.9
303.15 K, x2 = 0.89	1.02	3.7
303.15 K, x2 = 0.95	0.826	2.93
303.15 K, x2 = 0.97	0.652	–
308.15 K, x2 = 0	0.505	44.38
308.15 K, x2 = 0.05	0.54	36.9
308.15 K, x2 = 0.11	0.578	31.36
308.15 K, x2 = 0.16	0.619	27.23
308.15 K, x2 = 0.21	0.663	24.11
308.15 K, x2 = 0.26	0.711	21.64
308.15 K, x2 = 0.32	0.762	19.59
308.15 K, x2 = 0.42	0.872	16.04
308.15 K, x2 = 0.47	0.931	14.35
308.15 K, x2 = 0.53	0.992	12.68
308.15 K, x2 = 0.58	1.05	11.01
308.15 K, x2 = 0.63	1.11	9.39
308.15 K, x2 = 0.68	1.16	7.85
308.15 K, x2 = 0.74	1.2	6.44
308.15 K, x2 = 0.79	1.22	5.2
308.15 K, x2 = 0.84	1.2	4.17
308.15 K, x2 = 0.89	1.11	3.34
308.15 K, x2 = 0.95	0.892	2.68
308.15 K, x2 = 0.97	0.691	–
313.15 K, x2 = 0	0.57	35.76
313.15 K, x2 = 0.05	0.611	30.14
313.15 K, x2 = 0.11	0.654	25.92
313.15 K, x2 = 0.16	0.701	22.74
313.15 K, x2 = 0.26	0.803	18.29
313.15 K, x2 = 0.37	0.916	15.11
313.15 K, x2 = 0.42	0.975	13.68
313.15 K, x2 = 0.53	1.1	10.88
313.15 K, x2 = 0.58	1.16	9.5
313.15 K, x2 = 0.63	1.21	8.15
313.15 K, x2 = 0.68	1.26	6.87
313.15 K, x2 = 0.74	1.29	5.69
313.15 K, x2 = 0.89	1.18	3.02
313.15 K, x2 = 0.95	0.946	2.45
318.15 K, x2 = 0.11	–	21.73
318.15 K, x2 = 0.16	–	19.16
318.15 K, x2 = 0.21	–	17.18
318.15 K, x2 = 0.26	–	15.58
318.15 K, x2 = 0.32	–	14.22
318.15 K, x2 = 0.37	–	12.99
318.15 K, x2 = 0.42	–	11.81
318.15 K, x2 = 0.53	–	9.47
318.15 K, x2 = 0.58	–	8.3
318.15 K, x2 = 0.63	–	7.16
318.15 K, x2 = 0.68	–	6.06
318.15 K, x2 = 0.74	–	5.05
318.15 K, x2 = 0.79	–	4.16
318.15 K, x2 = 0.84	–	3.39
318.15 K, x2 = 0.95	–	2.26
